Experimental data: US20230183753A1, “Methods of in Vitro Cell Delivery” (Intellia Therapeutics, Inc., priority 2020, published 2023)

How the values were obtained:
Assay type in all cases: cell-based, human
AAVS1 [1] = assay: Percent editing at AAVS1 by NGS in NK cells with DNAPK inhibitors, Example 29; details: LNP 10 ug/ml total RNA cargo, seven days post LNP treatment
Procedure: (§1) Human primary NK cells were activated and expanded using K562-41BBL cells as feeder cells in OpTmizer media with 5% human AB serum, 500 U/mL IL-2, and 5 ng/ml IL-15 for 3 days. NK cells were plated at 50,000 cells per well in triplicate in OpTmizer media supplemented as described above with DNAPKi at concentrations indicated in Tables 78 and 79. […] The pre-incubated LNPs were added to NK cells suspended in the same media at a final concentration of 10 ug/ml of total RNA cargo in triplicate. For a subset of samples, AAV encoding GFP flanked by regions homologous to the AAVS1 edit site were added at a multiplicity of infection (MOI) of 600,000 genome copies following editing.

AAVS1 [2] = assay: GFP insertion (GFP++) in NK cells with LNP, AAV and DNAPK inhibitors, Example 29; details: LNP 10 ug/ml, seven days following editing
Procedure: as §1

TRAC = assay: Lipid screen in activated B cells: percent editing by NGS, Example 23.3; details: LNPs formulated with the named ionizable lipid, 5 μg/ml
Procedure: A leukopak from a healthy human donor was obtained commercially (Hemacare) and B cells were isolated by CD19 positive selection using the StraightFrom Leukopak CD19 MicroBead kit (Miltenyi, 130-117-021) on a MultiMACS Cell24 Separator Plus instrument. Following MACS isolation, CD19+ B cells were activated in B Cell Media 3 or B Cell Media 7, each supplemented with 100 ng/ml MEGACD40L. […] LNPs were generally prepared as Example 1 using the ionizable and PEG lipids described in Table 68 with the lipid composition expressed as the molar ratio of ionizable lipid/cholesterol/DSPC/PEG, respectively.
Editing was more efficient in B cells cultured in StemSpan compared to IMDM.

B2M locus = assay: Insertion into B cells with LNP and AAV6: GFP positive and B2M negative cells, Example 26; details: Day 7 post-treatment; LNP with the named ionizable lipid 5 μg/ml plus AAV6
Procedure: B cells were isolated as Example 23.3. and were activated in B cell media 9 as described in Table 64, supplemented with 1 ng/ml MEGACD40L. Two days following activation, B cells were treated with LNPs delivering mRNA encoding Cas9 (SEQ ID NO. 6) and gRNA G000529 (SEQ ID NO: 701) targeting the B2M locus as well as with AAV6 for GFP template insertion into the B2M locus (SEQ ID NO. 722) driven by the EF1α promoter. LNPs were generally prepared as described in Example 1 using Lipid A and Lipid D as the ionizable lipids with the lipid composition of 50/10/38.5/1.5, expressed as the molar ratio of ionizable lipid/cholesterol/DSPC/PEG, respectively.
B cells were phenotyped for GFP expression on Day 7. For B cell phenotyping by flow cytometry, B cells were stained with antibodies targeting CD19 (Biolegend, 302218), CD20 (Biolegend, 302322), CD86 (Biolegend, 374216) and B2M (Biolegend, 316312). Cells were subsequently stained with a viability dye (Biolegend, 422801), washed, and processed on a Cytoflex instrument (Beckman Coulter). Results were analyzed using the FlowJo software package. B cells were gated based on size and viability, followed by GFP expression on the total live population.

B2M [3] = assay: B2M negative B cells after LNPs preincubated with ApoE3 or ApoE4, Example 23.4; details: LNPs formulated with the named ionizable lipid
Procedure: B cells (Hemacare) were thawed and activated in Stemspan SFEM media with 1 ug/ml CpG ODN 2006 (Invivogen, cat. tlrl-2006-1), 50 ng/ml IL-2 (Peprotech, cat. 200-02), 50 ng/ml IL-10 (Peprotech, cat. 200-10), 10 ng/ml IL-15 (Peprotech, cat. 200-15), 1 ng/ml MegaCD40L (Enzo Life Sciences, cat. ALX-522-110-0000), 1% penicillin-streptomycin and 5% human AB serum. B cells were considered activated in the presence of 1 ng/mL MegaCD40L (Enzo Life Sciences, cat. ALX-522-110-0000) and 1 ug/mL CpG ODN 2006 (Invivogen, cat. tlrl-2006-1). Two days following activation, B cells were treated with LNPs delivering Cas9 mRNA and gRNA G000529 (SEQ ID NO: 701) targeting B2M. LNPs were generally prepared as Example 1 using the ionizable lipids described in Table 69 with the lipid composition of 50/10/38.5/1.5, expressed as the molar ratio of ionizable lipid/cholesterol/DSPC/PEG, respectively. […] Five days post LNP treatment, cells were phenotyped by flow cytometry. Briefly, B cells were incubated with antibodies targeting B2M (Biolegend, cat. 395806), CD19 (Biolegend, cat. 302205), CD20 (Biolegend, cat. 302322), CD86 (Biolegend cat. 305420). Cells were subsequently washed in DAPI (Thermo Fisher, cat. D1306) diluted 1:3703 in PBS, processed on a Cytoflex instrument (Beckman Coulter) and analyzed using the FlowJo software package. B cells were gated on size, singlets, and live cells.

B2M [4] = assay: Percent editing by NGS in monocytes and macrophages with Lipid A or Lipid D LNPs, Example 34; details: LNP formulations with the named lipid; Day 0 and Day 5 post thaw
Procedure: CD14+ cells were isolated as in Example 31 and frozen for future use. CD14+ cells were thawed and cultured in triplicate at 100,000 cells/well in OpTmizer base media as described in Table 2 with 10 ng/mL GM-CSF (Stemcell, 78140.1) on non-tissue culture plates (Falcon, 351172) for ease of detachment. Cells were treated with LNPs delivering mRNA encoding Cas9 (SEQ ID NO. 6) and gRNA G000529 (SEQ ID NO. 701) targeting B2M. For monocytes, LNP addition occurred on the same day as plating on tissue culture plates. […] LNPs were generally prepared as Example 1 using the ionizable lipids indicated in Tables 84 and 85 with the lipid composition of 50/10/38.5/1.5, expressed as the molar ratio of ionizable lipid/cholesterol/DSPC/PEG, respectively. […] The pre-incubated LNPs were added to cells in 1:1 v/v ratio, yielding a final total RNA cargo dose of 2.5 ug/mL or 5 ug/mL.
Briefly, cells were incubated with antibodies targeting CD68, CD11b and HLA-ABC (Biolegend, 311432) as generally as described in Example 31. HLA-ABC targeting antibody was used in place of B2M. Cells were subsequently washed, processed on a Cytoflex instrument (Beckman Coulter) and analyzed using the FlowJo software package. Cells were gated on size, CD68+, CD11b+ followed by HLA-ABC− population. NGS editing data is shown is Table 85. […] Editing was also observed when cells were cultured in RPMI or XVIVO-15 media.

B2M [5] = assay: B2M editing by NGS in T cells with different ionizable lipid formulations (Lipid A, Lipid B), Example 7; details: LNPs formulated with the named ionizable lipid
Procedure: LNPs formulated with different ionizable lipids were tested for T cell delivery efficacy. T cells were prepared, thawed and activated as in Example 5. Forty-eight hours post activation, T cells were treated with LNPs delivering Cas9 mRNA and gRNA G000529 (SEQ ID NO: 701) targeting B2M. LNPs were generally prepared as Example 1. Lipid A formulations were prepared at a ratio of 50/9/38/3 ionizable Lipid A, cholesterol, DSPC, and PEG2k-DMG. Lipid B compositions were formulated at a ratio of 50/10/38.5/1.5 ionizable lipid nonyl 8-((8,8-bis(octyloxy)octyl)(2-hydroxyethyl)amino)octanoate, cholesterol, DSPC, and PEG2k-DMG.

TRBC [6] = assay: CD3 negative cells after treating non-activated T cells with LNPs preincubated with ApoE3, ApoE4 or ApoA1, Example 19
Procedure: Healthy human donor leukopak was obtained commercially (Hemacare) and T cells were isolated by CD4/CD8 positive selection using the StraightFrom® Leukopak® CD4/CD8 MicroBeads (Miltenyi, Catalog, 130-122-352) following the manufacturer's protocol on MultiMACS Cell24 Separator Plus instrument.
Upon thaw, T cells were cultured in complete T cell media: T cell base media composed of XVIVO-15 media (Fisher, BE02-060Q), 1% Pen-Strep (Corning, 30-002-CI), 50 uM beta-mercaptoethanol, and N-Acetyl L-Cysteine (Fisher, ICN19460325), which was further supplemented with 5% human AB serum (Gemini Bio Products, 100-512), 200 U/mL IL-2 (Peprotech, 200-02), 5 ng/mL IL7 (Peprotech, 200-07), 5 ng/mL IL-15 (Peprotech, 200-15)). At this stage, a portion of cells were activated by addition of 1:100 dilution of TransAct (Miltenyi Biotech, Catalog #130-111-160). All cells were cultured at 37 C for 48 hours.
LNPs were generally prepared as Example 1 with the lipid composition of 50/9/39.5/1.5, expressed as the molar ratio of ionizable lipid A/cholesterol/DSPC/PEG, respectively.
Briefly, T cells were incubated in antibody targeting CD3 (Biolegend, 300441). Cells were subsequently washed, analyzed on a CytoFLEX S instrument (Beckman Coulter) using the FlowJo software package. T cells were gated on size and CD3 expression.

TRBC [7] = assay: CD3 negative cells after treating activated T cells with LNPs preincubated with ApoE3, ApoE4 or ApoA1, Example 19
Procedure: All cells were cultured at 37 C for 48 hours. 100,000 T cells were resuspended in complete T cell media without human serum for 15-30 min prior to LNP transfection.
Cells were washed 48 hr post LNP treatment with T cell media to wash and replaced with fresh complete T cell media.
Five days post LNP treatment, T cells were phenotyped by flow cytometry to determine CD3 protein surface expression. […] Cells were subsequently washed, analyzed on a CytoFLEX S instrument (Beckman Coulter) using the FlowJo software package. T cells were gated on size and CD3 expression.

[8] = Apo protein 0.08 ug/mL, Biological Replicate1, LNP 4 ug/mL
[9] = Apo protein 0.08 ug/mL, Biological Replicate2, LNP 4 ug/mL
[10] = Apo protein 1.25 ug/mL, Biological Replicate1, LNP 4 ug/mL
[11] = Apo protein 1.25 ug/mL, Biological Replicate2, LNP 4 ug/mL
[12] = Apo protein 5.00 ug/mL, Biological Replicate1, LNP 4 ug/mL
[13] = Apo protein 5.00 ug/mL, Biological Replicate2, LNP 4 ug/mL
[14] = Apo protein 10.00 ug/mL, Biological Replicate1, LNP 4 ug/mL
[15] = Apo protein 10.00 ug/mL, Biological Replicate2, LNP 4 ug/mL

In the case of `Cc1cc2ncnn2cc1Nc1ncc2c(n1)n(C1CCC3(CC1)CC3)c(=O)n2C` [Compound 4, 7-methyl-2-((7-methyl-[1,2,4]triazolo[1,5-a]pyridin-6-yl)amino)-9-(spiro[2.5]octan-6-yl)-7,9-dihydro-8H-purin-8-one], the “Mean percent editing at AAVS1” value (AAVS1 [1]; DNAPKi 0.125 uM) is reported as 96.77%, the “Mean percent editing at AAVS1” value (AAVS1 [1]; DNAPKi 0.5 uM) is reported as 97.67% and the “Mean percent editing at AAVS1” value (AAVS1 [1]; DNAPKi […]) is reported as 97.37%. For the same compound, the “Percent of NK cells with high GFP expression, Mean” value (“Percent of NK cells” for short) (AAVS1 [2]; AAV MOI 600,000, DNAPKi 0.125 uM) was 88.10%, the “Percent of NK cells” value (AAVS1 [2]; AAV MOI 600,000, DNAPKi 0.5 uM) was 90.27% and the “Percent of NK cells” value (AAVS1 [2]; AAV MOI 600,000, DNAPKi […]) was 90.63%.
For `CCCCC/C=C\C/C=C\CCCCCCCC(=O)OCC(COC(=O)CCC(OCCCCCCCC)OCCCCCCCC)COC(=O)OCCCN(CC)CC` (stereo not shown) [Lipid A, (9Z,12Z)-3-((4,4-bis(octyloxy)butanoyl)oxy)-2-((((3-(diethylamino)propoxy)carbonyl)oxy)methyl)propyl octadeca-9,12-dienoate], the “editing in activated B cells by NGS, in words” value (TRAC) was “Efficient editing was evident”, the “percentage of B cells expressing GFP” value (B2M locus) was 29.5% and the “B2M negative B cells, in words” value (B2M [3]) was “increased percentage of B2M negative cells”. The “editing in monocytes and macrophages, in words” value (B2M [4]) was “showed effective editing” and the “B2M editing in T cells by NGS, in words” value (B2M [5]) was “Efficient editing was evident”.
With `CCCCCCCCCOC(=O)CCCCCCCN(CCO)CCCCCCCC(OCCCCCCCC)OCCCCCCCC` [Lipid B, nonyl 8-((8,8-bis(octyloxy)octyl)(2-hydroxyethyl)amino)octanoate] the “B2M editing in T cells by NGS, in words” value (B2M [5]) was “Efficient editing was evident”.
With `CCCCCCCCCOC(=O)CCCCCCCN(CCO)CCCCCCC(OCCCCCCCC)OCCCCCCCC` [Lipid C] the “editing in activated B cells by NGS, in words” value (TRAC) was “Efficient editing was evident”.
In the case of `CCCCCCCCCOC(=O)CCCCCCCN(CCO)CCCCCCC(OCCCCCCCC)OCCCCCCCC` [Lipid D], the “percentage of B cells expressing GFP” value (B2M locus) is reported as 14.5%, the “B2M negative B cells, in words” value (B2M [3]) is reported as “increased percentage of B2M negative cells” and the “editing in monocytes and macrophages, in words” value (B2M [4]) is reported as “showed effective editing”.
“ApoA1: Recombinant Human ApoA1 used to preincubate LNPs” was tested, and the “Percent CD3 negative cells” value (TRBC [6]; [8]) was 4.2%, the “Percent CD3 negative cells” value (TRBC [6]; [9]) was 6.2% and the “Percent CD3 negative cells” value (TRBC [6]; [10]) was 4.7%. The “Percent CD3 negative cells” value (TRBC [6]; [11]) was 4.2%, the “Percent CD3 negative cells” value (TRBC [6]; [12]) was 6.1% and the “Percent CD3 negative cells” value (TRBC [6]; [13]) was 4.8%. The “Percent CD3 negative cells” value (TRBC [6]; [14]) was 5.4%, the “Percent CD3 negative cells” value (TRBC [6]; [15]) was 3.8% and the “editing (CD3 negative cells) with LNPs preincubated with Apo protein, in words” value (TRBC [6]; Apo protein 0.08-10 ug/mL) was “none of the tested concentrations of ApoA1 protein led to efficient editing”. For the same compound, the “Percent CD3 negative cells” value (TRBC [7]; [8]) was 2.9%, the “Percent CD3 negative cells” value (TRBC [7]; [9]) was 2.5% and the “Percent CD3 negative cells” value (TRBC [7]; [10]) was 2.8%. For the same compound, the “Percent CD3 negative cells” value (TRBC [7]; [11]) was 3.0%, the “Percent CD3 negative cells” value (TRBC [7]; [12]) was 2.5% and the “Percent CD3 negative cells” value (TRBC [7]; [13]) was 3.2%. The “Percent CD3 negative cells” value (TRBC [7]; [14]) was 3.6%, the “Percent CD3 negative cells” value (TRBC [7]; [15]) was 3.6% and the “editing (CD3 negative cells) with LNPs preincubated with Apo protein, in words” value (TRBC [7]; Apo protein 0.08-10 ug/mL) was “none of the tested concentrations of ApoA1 protein led to efficient editing”.
